Measured values from US20160220569A1, “CDK4/6 Inhibitor Dosage Formulations For The Protection Of Hematopoietic Stem And Progenitor Cells During Chemotherapy” (G1 Therapeutics, Inc., priority 2015, published 2016).
Like-named read-outs stand apart in the source and are kept apart here.

Assay: Single escalating dose IV infusion pharmacokinetics in healthy volunteers (noncompartmental)
Format: in vivo, human
Conditions: both sexes, human, plasma, iv; for concentration at 24.5 h: read-out: concentration at 24.5 hours after the start of infusion; for concentration at 0.25 h / concentration at 0.5 h / concentration at 0.75 h / concentration at 1 h / concentration at 2.5 h / concentration at 3.5 h / concentration at 8.5 h / concentration at 12.5 h / concentration at 6.5 h: r7-9=Subjects 1-3,r11=Mean,r13=Min,r14=Median,r15=Max,r17=Geometric Mean; for concentration at 0.5 h: Time 0.50 h
Procedure: Forty-five subjects have enrolled in the study.
Analysis of plasma concentration versus time data for calculation of standard pharmacokinetic (PK) parameters following intravenous infusion administration was conducted using Phoenix WinNonlin version 6.3 using a nominal infusion duration and scheduled blood sampling times. Random subject numbers were assigned by the bioanalytical laboratory to retain the blind.
(§1) Analysis of plasma concentration versus time data for calculation of standard pharmacokinetic (PK) parameters following intravenous infusion administration was conducted using Phoenix WinNonlin version 6.3 using a nominal infusion duration and scheduled blood sampling times.
as §1

[1] = 6 mg/m^2, Compound 1 Concentration, Cohort 1, 6 mg/m^2 IV
[2] = 12 mg/m^2, Compound 1 Concentration, Cohort 2, 12 mg/m^2 IV
[3] = 24 mg/m2, Cohort 3, 24 mg/m^2 IV, r6-8=Subjects 1-3,r10=Mean,r12=Min,r13=Median,r14=Max,r16=Geometric Mean

Q: For `CN1CCN(c2ccc(Nc3ncc4cc5n(c4n3)C3(CCCCC3)CNC5=O)nc2)CC1` [Compound 1, 2′-((5-(4-methylpiperazin-1-yl)pyridin-2-yl)amino)-7′,8′-dihydro-6′H-spiro[cyclohexane-1,9′-pyrazino[1′,2′:1,5]pyrrolo[2,3-d]pyrimidin]-6′-one], which concentration at 24.5 h (6 mg/m^2, Cohort 1, 6 mg/m^2 IV, 1 of 3 subjects measurable) is on record?
A: 0.595 ng/mL

Q: What about the concentration at 0.25 h [1] of the same compound?
A: 49 ng/mL

Q: What about the concentration at 0.5 h [1] of the same compound?
A: 46.9 ng/mL

Q: What about the concentration at 0.75 h [1] of the same compound?
A: 16.3 ng/mL

Q: And the concentration at 1 h (6 mg/m^2, Compound 1 Concentration, Cohort 1, 6 mg/m^2 IV, Time 1.00 h)?
A: 11.8 ng/mL

Q: What about the concentration at 2.5 h (6 mg/m^2, Compound 1 Concentration, Cohort 1, 6 mg/m^2 IV, Time 2.50 h) of the same compound?
A: 4.69 ng/mL

Q: What about the concentration at 3.5 h (6 mg/m^2, Compound 1 Concentration, Cohort 1, 6 mg/m^2 IV, Time 3.50 h) of the same compound?
A: 3.75 ng/mL

Q: And the concentration at 8.5 h (6 mg/m^2, Compound 1 Concentration, Cohort 1, 6 mg/m^2 IV, Time 8.50 h)?
A: 1.39 ng/mL

Q: What about the concentration at 12.5 h (6 mg/m^2, Compound 1 Concentration, Cohort 1, 6 mg/m^2 IV, Time 12.50 h) of the same compound?
A: 0.752 ng/mL

Q: What about the AUC(0-inf) (12 mg/m2, Cohort 2, 12 mg/m^2 IV, mean, read-out: AUCinf averaged) of the same compound?
A: 148 ng·h/mL

Q: And the Cmax (12 mg/m2, Cohort 2, 12 mg/m^2 IV, mean, read-out: Cmax averaged)?
A: 122 ng/mL

Q: What about the half-life (12 mg/m2, Cohort 2, 12 mg/m^2 IV, mean, read-out: Half-lives averaged (converted)) of the same compound?
A: 8.22 h

Q: And the Tmax (12 mg/m2, Cohort 2, 12 mg/m^2 IV, median, read-out: median Tmax)?
A: 0.5 h

Q: What about the MRT inf (12 mg/m2, Cohort 2, 12 mg/m^2 IV, r6-8=Subjects 1-3,r10=Mean,r12=Min,r13=Median,r14=Max,r16=Geometric Mean) of the same compound?
A: 5.56 h

Q: And the AUC(0-inf) (12 mg/m2, Cohort 2, 12 mg/m^2 IV, r6-8=Subjects 1-3,r10=Mean,r12=Min,r13=Median,r14=Max,r16=Geometric Mean, read-out: AUCinf)?
A: 148 ng·h/mL

Q: And the Cmax (12 mg/m2, Cohort 2, 12 mg/m^2 IV, r6-8=Subjects 1-3,r10=Mean,r12=Min,r13=Median,r14=Max,r16=Geometric Mean, read-out: Cmax)?
A: 122 ng/mL

Q: What about the Tmax (12 mg/m2, Cohort 2, 12 mg/m^2 IV, r6-8=Subjects 1-3,r10=Mean,r12=Min,r13=Median,r14=Max,r16=Geometric Mean, read-out: Tmax) of the same compound?
A: 0.417 h

Q: And the half-life (12 mg/m2, Cohort 2, 12 mg/m^2 IV, r6-8=Subjects 1-3,r10=Mean,r12=Min,r13=Median,r14=Max,r16=Geometric Mean, read-out: t½ (converted))?
A: 8.22 h

Q: What about the half-life (12 mg/m2, Cohort 2, 12 mg/m^2 IV, range over subjects, read-out: Half-lives range) of the same compound?
A: 7.56 to 8.89 h

Q: And the concentration at 24.5 h (12 mg/m^2, Cohort 2, 12 mg/m^2 IV, range over 3 subjects)?
A: 0.506 to 1.06 ng/mL

Q: And the concentration at 0.25 h [2]?
A: 115 ng/mL

Q: What about the concentration at 0.5 h [2] of the same compound?
A: 102 ng/mL

Q: And the concentration at 0.75 h [2]?
A: 33.2 ng/mL

Q: And the concentration at 1 h (12 mg/m^2, Compound 1 Concentration, Cohort 2, 12 mg/m^2 IV, Time 1.0 h)?
A: 23.9 ng/mL

Q: And the concentration at 2.5 h (12 mg/m^2, Compound 1 Concentration, Cohort 2, 12 mg/m^2 IV, Time 2.5 h)?
A: 8.75 ng/mL

Q: What about the concentration at 3.5 h (12 mg/m^2, Compound 1 Concentration, Cohort 2, 12 mg/m^2 IV, Time 3.5 h) of the same compound?
A: 7.89 ng/mL

Q: And the concentration at 6.5 h [2]?
A: 3.99 ng/mL

Q: And the concentration at 8.5 h (12 mg/m^2, Compound 1 Concentration, Cohort 2, 12 mg/m^2 IV, Time 8.5 h)?
A: 2.79 ng/mL

Q: And the concentration at 12.5 h (12 mg/m^2, Compound 1 Concentration, Cohort 2, 12 mg/m^2 IV, Time 12.5 h)?
A: 1.65 ng/mL

Q: And the AUC(0-inf) (24 mg/m2, Cohort 3, 24 mg/m^2 IV, mean, read-out: AUCinf averaged)?
A: 287 ng·h/mL

Q: And the Cmax (24 mg/m2, Cohort 3, 24 mg/m^2 IV, mean, read-out: Cmax averaged)?
A: 252 ng/mL

Q: And the half-life (24 mg/m2, Cohort 3, 24 mg/m^2 IV, mean, read-out: Half-lives averaged (converted))?
A: 9.88 h

Q: And the Tmax (24 mg/m2, Cohort 3, 24 mg/m^2 IV, median, read-out: median Tmax)?
A: 0.5 h

Q: What about the AUC(0-t) [3] of the same compound?
A: 261 ng·h/mL

Q: What about the MRT inf [3] of the same compound?
A: 6.65 h

Q: What about the AUC(0-inf) (24 mg/m2, Cohort 3, 24 mg/m^2 IV, r6-8=Subjects 1-3,r10=Mean,r12=Min,r13=Median,r14=Max,r16=Geometric Mean, read-out: AUCinf) of the same compound?
A: 287 ng·h/mL

Q: What about the Cmax (24 mg/m2, Cohort 3, 24 mg/m^2 IV, r6-8=Subjects 1-3,r10=Mean,r12=Min,r13=Median,r14=Max,r16=Geometric Mean, read-out: Cmax) of the same compound?
A: 252 ng/mL

Q: And the Tmax (24 mg/m2, Cohort 3, 24 mg/m^2 IV, r6-8=Subjects 1-3,r10=Mean,r12=Min,r13=Median,r14=Max,r16=Geometric Mean, read-out: Tmax)?
A: 0.5 h

Q: What about the half-life (24 mg/m2, Cohort 3, 24 mg/m^2 IV, r6-8=Subjects 1-3,r10=Mean,r12=Min,r13=Median,r14=Max,r16=Geometric Mean, read-out: t½ (converted)) of the same compound?
A: 9.88 h

Q: What about the half-life (24 mg/m2, Cohort 3, 24 mg/m^2 IV, range over subjects, read-out: Half-lives range) of the same compound?
A: 7.85 to 13.1 h

Q: What about the concentration at 24.5 h (24 mg/m^2, Cohort 3, 24 mg/m^2 IV, range over 3 subjects) of the same compound?
A: 0.87 to 2.91 ng/mL

Q: And the concentration at 1 h (24 mg/m^2, Compound 1 Concentration, Cohort 3, 24 mg/m^2 IV, Time 1.0 h)?
A: 39.2 ng/mL

Q: And the concentration at 2.5 h (24 mg/m^2, Compound 1 Concentration, Cohort 3, 24 mg/m^2 IV, Time 2.5 h)?
A: 15 ng/mL

Q: What about the concentration at 3.5 h (24 mg/m^2, Compound 1 Concentration, Cohort 3, 24 mg/m^2 IV, Time 3.5 h) of the same compound?
A: 11.6 ng/mL

Q: What about the concentration at 6.5 h (24 mg/m^2, Compound 1 Concentration, Cohort 3, 24 mg/m^2 IV) of the same compound?
A: 6.7 ng/mL

Q: What about the concentration at 8.5 h (24 mg/m^2, Compound 1 Concentration, Cohort 3, 24 mg/m^2 IV, Time 8.5 h) of the same compound?
A: 4.91 ng/mL

Q: And the AUC(0-inf) (48 mg/m2, Cohort 4, 48 mg/m^2 IV, mean, read-out: AUCinf averaged)?
A: 499 ng·h/mL
